pIC50: −log10 of the molar value.
Columns and labels:
[1] = biological target: T1, Protein cereblon/Poly [ADP-ribose] polymerase 1 (Homo sapiens, UniProt P09874+Q96SW2); test: PROTAC activity at CRBN/PARP1 in human MDA-MB-231 cells assessed as induction of PARP1 degradation at 0.1 uM relative to control; assay type: cell-based
Target sequence in this assay (P09874 2-1014 limits assumed): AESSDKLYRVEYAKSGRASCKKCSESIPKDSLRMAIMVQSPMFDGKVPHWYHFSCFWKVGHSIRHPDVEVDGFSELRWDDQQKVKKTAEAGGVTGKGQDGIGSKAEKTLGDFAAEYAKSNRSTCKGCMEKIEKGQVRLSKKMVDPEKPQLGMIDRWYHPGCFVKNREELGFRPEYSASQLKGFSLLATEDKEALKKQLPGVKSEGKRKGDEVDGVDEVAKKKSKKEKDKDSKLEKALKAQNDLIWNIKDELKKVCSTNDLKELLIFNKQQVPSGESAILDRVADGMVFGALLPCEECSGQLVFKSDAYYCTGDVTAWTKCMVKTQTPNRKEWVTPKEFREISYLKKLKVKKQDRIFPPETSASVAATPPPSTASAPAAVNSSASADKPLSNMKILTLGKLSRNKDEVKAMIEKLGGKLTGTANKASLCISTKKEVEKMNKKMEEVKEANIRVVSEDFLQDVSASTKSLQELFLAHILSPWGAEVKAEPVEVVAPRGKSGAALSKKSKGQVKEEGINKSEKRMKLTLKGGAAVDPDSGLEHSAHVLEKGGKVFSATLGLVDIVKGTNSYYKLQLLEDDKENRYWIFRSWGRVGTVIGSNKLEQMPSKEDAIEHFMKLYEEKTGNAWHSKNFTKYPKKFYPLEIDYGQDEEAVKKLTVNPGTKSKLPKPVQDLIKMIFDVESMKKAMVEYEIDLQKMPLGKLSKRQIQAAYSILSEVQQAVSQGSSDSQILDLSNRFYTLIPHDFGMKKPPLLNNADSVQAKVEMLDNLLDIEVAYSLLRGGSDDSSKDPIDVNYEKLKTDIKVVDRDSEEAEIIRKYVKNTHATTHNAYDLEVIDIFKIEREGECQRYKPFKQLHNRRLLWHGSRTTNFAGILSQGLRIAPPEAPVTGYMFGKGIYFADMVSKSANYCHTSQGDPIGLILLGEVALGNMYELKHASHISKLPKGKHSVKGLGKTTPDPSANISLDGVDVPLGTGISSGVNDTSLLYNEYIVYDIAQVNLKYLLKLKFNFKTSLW
Target sequence in this assay (Q96SW2 whole entry partner): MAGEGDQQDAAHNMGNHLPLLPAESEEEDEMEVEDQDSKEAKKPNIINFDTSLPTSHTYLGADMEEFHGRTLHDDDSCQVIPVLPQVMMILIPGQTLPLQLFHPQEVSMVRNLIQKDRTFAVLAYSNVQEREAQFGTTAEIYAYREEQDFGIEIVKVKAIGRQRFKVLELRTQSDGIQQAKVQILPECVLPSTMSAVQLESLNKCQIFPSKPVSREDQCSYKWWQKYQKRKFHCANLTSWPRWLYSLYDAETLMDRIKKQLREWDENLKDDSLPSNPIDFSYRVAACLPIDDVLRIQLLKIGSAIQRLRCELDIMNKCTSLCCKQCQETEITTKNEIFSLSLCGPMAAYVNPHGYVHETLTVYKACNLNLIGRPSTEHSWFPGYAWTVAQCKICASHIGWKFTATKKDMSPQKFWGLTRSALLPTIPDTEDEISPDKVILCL

MDA-MB-231 [2] = test: Antiproliferative activity against human MDA-MB-231 cells assessed as reduction in cell viability after 24 hrs by CCK8 assay; assay type: functional, cell-based; details: MDA-MB-231, 24 h
[3] = biological target: T1, Protein cereblon/Poly [ADP-ribose] polymerase 1; test: PROTAC activity at CRBN/PARP1 in human MDA-MB-231 cells assessed as […]; assay type: cell-based
Target sequence in this assay (P09874 whole entry): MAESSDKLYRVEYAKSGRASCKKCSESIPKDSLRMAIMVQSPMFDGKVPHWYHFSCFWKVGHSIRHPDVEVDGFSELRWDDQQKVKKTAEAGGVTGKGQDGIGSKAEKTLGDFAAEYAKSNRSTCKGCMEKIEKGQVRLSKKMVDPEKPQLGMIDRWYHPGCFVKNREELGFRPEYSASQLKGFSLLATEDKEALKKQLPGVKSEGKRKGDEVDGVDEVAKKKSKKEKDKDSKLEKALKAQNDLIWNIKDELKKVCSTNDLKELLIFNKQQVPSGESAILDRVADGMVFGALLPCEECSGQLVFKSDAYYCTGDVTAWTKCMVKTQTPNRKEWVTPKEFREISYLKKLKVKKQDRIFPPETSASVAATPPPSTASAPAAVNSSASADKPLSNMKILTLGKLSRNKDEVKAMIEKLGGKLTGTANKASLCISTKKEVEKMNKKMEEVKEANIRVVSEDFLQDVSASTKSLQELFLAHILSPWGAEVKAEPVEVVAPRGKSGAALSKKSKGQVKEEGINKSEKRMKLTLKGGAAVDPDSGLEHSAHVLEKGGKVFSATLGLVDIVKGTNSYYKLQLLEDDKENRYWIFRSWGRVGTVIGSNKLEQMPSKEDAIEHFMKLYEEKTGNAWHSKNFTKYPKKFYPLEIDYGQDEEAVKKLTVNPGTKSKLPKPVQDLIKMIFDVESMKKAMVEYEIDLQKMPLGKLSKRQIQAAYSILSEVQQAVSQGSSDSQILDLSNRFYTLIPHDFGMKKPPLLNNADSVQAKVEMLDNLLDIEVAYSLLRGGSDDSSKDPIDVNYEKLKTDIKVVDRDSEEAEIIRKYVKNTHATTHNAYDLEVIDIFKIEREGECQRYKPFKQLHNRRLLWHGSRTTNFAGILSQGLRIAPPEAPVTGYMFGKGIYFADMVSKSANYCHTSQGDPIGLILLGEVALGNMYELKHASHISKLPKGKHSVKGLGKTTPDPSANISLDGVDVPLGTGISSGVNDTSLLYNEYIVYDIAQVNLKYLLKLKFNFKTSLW
Target sequence in this assay (Q96SW2 whole entry): as the sequence (Q96SW2 whole entry partner) above

MDA-MB-231 [4] = test: Antiproliferative activity against human MDA-MB-231 cells assessed as reduction in cell viability at 1 uM after 24 hrs by CCK8 assay relative to control; assay type: functional
MDA-MB-231 [5] = test: Antiproliferative activity against human MDA-MB-231 cells assessed as reduction in cell viability at 10 uM after 24 hrs by CCK8 assay relative to control; assay type: functional
MDA-MB-231 [6] = test: Antitumor activity against human MDA-MB-231 cells xenografted in mouse assessed as tumor growth inhibition at 40 mg/kg, po relative to control; assay type: functional; details: read-out: TGI
A549 [7] = test: Induction of apoptosis in human A549 cells at 1 uM incubated for 48 hrs by Annexin V-FITC/PI staining based flow cytometry analysis relative to control; assay type: functional
A549 [8] = test: Induction of apoptosis in human A549 cells at 2 uM incubated for 48 hrs by Annexin V-FITC/PI staining based flow cytometry analysis relative to control; assay type: functional
A549 [9] = test: Induction of apoptosis in human A549 cells at 4 uM incubated for 48 hrs by Annexin V-FITC/PI staining based flow cytometry analysis relative to control; assay type: functional
A549 [10] = test: Antiproliferative activity against human A549 cells assessed as reduction in cell growth measured for 72 hrs by MTT assay; assay type: functional, cell-based; details: A549, 72 h

Row | Activity [1] [%] | pIC50 (MDA-MB-231 [2]) | DC50 [3] [nM] | pIC50 (A549 [10]) | SMILES | Activity (MDA-MB-231 [4]) [%] | Activity (MDA-MB-231 [5]) [%] | inhibition in vivo at 40 mg/kg (MDA-MB-231 [6]) [%] | Activity (A549 [7]) [%] | Activity (A549 [8]) [%] | Activity (A549 [9]) [%]
1 | 88 | 5.98 | 25.2 | – | NC(=O)c1cccc2cn(-c3ccc(C4CCCN(CCC5CCN(CCC6CCN(c7ccc8c(c7)C(=O)N(C7CCC(=O)NC7=O)C8=O)CC6)CC5)C4)cc3)nc12 (stereo not given) | 65.84 | 11.78 | 71.4 | – | – | –
2 | – | – | – | 5.71 | O=C1CCN(Cc2cn(-c3ccccc3F)nn2)C2(CCCCC2)c2ccccc21 | – | – | – | 8 | 10.9 | 19
